Data set [1] relates to human NPC1 mutant fibroblasts. As to conditions: cited from earlier work.
Another data set has as its system NPC1 and −2. As to conditions: mice, clinically relevant doses, cited from earlier work.
Data set [2] in a line: Human serum stability (31P NMR). The class given is in vitro ADME.
A short description of data set [3]: B95a cell lysate experiment (31P NMR). The class given is in vitro ADME. The conditions noted are these: marmoset (cotton-top tamarin), B95a cell lysate; pH 7.6, 37 Celsius. As to the method:
(§1) 4 mg of pentyl (2S)-2-[({2-amino-3-hydroxy-2-[2-(4-octylpheny)ethyl]propoxy}(4-methoxyphenoxy)phosphoryl)amino]propanoate are dissolved in a mixture of 150 μL of acetone d6 and 100 μL of trizma buffer (pH=7.6). The solution is transferred into an NMR tube. The ^31P spectrum is recorded (64 scans).
(§2) To the blank sample in the NMR tube 150 μL of B95a cell lysate (6.000.000 cell/m L) are added and then ^31P spectra are recorded at 37 Celsius (512 scans, 600 sec delay, 20 experiments).

The next data set deals with B95a cell lysate. In words: B95a cell lysate experiment (31P NMR). The conditions noted are these: pH 7.6, 37 Celsius, FIG. 4. The class given is in vitro ADME. As to the method: as §1, §2
In a further data set the target is T1, Carboxypeptidase Y (Saccharomyces cerevisiae, UniProt P00729).
T1 construct: purchased Aldrich
T1 sequence (P00729 112-532): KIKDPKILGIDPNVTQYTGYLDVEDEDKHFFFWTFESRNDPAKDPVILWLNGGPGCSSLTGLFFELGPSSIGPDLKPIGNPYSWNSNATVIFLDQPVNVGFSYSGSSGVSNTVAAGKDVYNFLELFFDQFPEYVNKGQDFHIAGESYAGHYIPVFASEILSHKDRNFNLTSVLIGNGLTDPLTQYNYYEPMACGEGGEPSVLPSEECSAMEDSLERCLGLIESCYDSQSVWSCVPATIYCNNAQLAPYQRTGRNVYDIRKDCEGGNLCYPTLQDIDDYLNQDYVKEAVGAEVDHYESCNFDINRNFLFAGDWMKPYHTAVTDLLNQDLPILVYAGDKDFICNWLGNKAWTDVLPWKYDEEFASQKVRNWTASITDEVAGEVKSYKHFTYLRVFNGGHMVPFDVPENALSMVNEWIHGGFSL
In words: Carboxypeptidase Y experiment (31P NMR). The class given is in vitro ADME. As to the method:
Blank in acetone d6 alone (No trizma): 1-2 mg of pentyl (2S)-2-[({2-amino-3-hydroxy-2-[2-(4-octylphenethyl]propoxy}(4-methoxyphenoxy) phosphoryl)amino]propanoate is dissolved in 150 μL of acetone d6 and the solution transferred into an NMR tube. The ^31P spectrum is recorded (16 scans are sufficient).
The sample in the NMR tube is diluted with 100 μL of Trizma buffer (pH=7.6). 0.1 mg of Carboxypeptidase Y (Aldrich) is then dissolved in 150 μL of Trizma buffer and the resulting solution is added to the NMR tube. ^31P NMR spectra are then recorded (512 scans, 600 sec delay, 20 experiments.) FIG. 1

Each structure is given as a SMILES string.

On to `CCCCCCCCc1ccc(CCC(N)(CO)CO)cc1` [FTY720, Fingolimod], for which, in data set [1], the “accumulation of cholesterol and glycosphingolipids” value is “significantly reduced the accumulation of cholesterol and glycosphingolipids”; the “expression of NPC1 and −2” value was “greatly increased expression of NPC1 and −2”. Besides, the cholesterol result with NPC1 and −2 (SphK2-dependent) is listed as “decreased cholesterol”. In the data set on NPC1 and −2 (brain and liver), the “expression of NPC1 and −2” value was “increased expression of NPC1 and −2 in brain and liver”.
`CCCCCCCCc1ccc(CCC(N)(CO)COP(=O)(N[C@@H](C)C(=O)OCCCCC)Oc2ccc(OC)cc2)cc1` (stereo partly drawn) [pentyl (2S)-2-[({2-amino-3-hydroxy-2-[2-(4-octylphenyl)ethyl]propoxy}(4-methoxyphenoxy)phosphoryl)amino]propanoate]: the “stability in human serum” value in data set [2] (DMSO d6 / Trizma buffer pH 7.6) is reported as “stable in human serum”. Further, in data set [2] (FIG. 3), the “time over which the prodrug is stable in human serum” value is “at least 665 minutes”. Further, the half-life (in general, the time in which the quantity being followed falls by half) at 10 mg/mL in data set [3] was determined as 664 min. The “processing in B95a cell lysate” value with B95a cell lysate was “processed to release the active monophosphorylated analogue”. For the same compound, the “activation of the prodrug by the esterase” value at Carboxypeptidase Y (acetone d6 / Trizma buffer, Carboxypeptidase Y, FIG. 1) is recorded as “rapidly activated by the esterase”. Further, the half-life on Carboxypeptidase Y (yeast (Saccharomyces cerevisiae), Carboxypeptidase Y in Trizma buffer / acetone d6, acetone d6 / Trizma buffer pH 7.6, read-out: half-life in the presence of Carboxypeptidase Y) came to 2110 min.

The values are drawn from US11078221B2, “Phosphorodiamidates and other phosphorus derivatives of fingolimod and related S1P receptor modulators” (UNIVERSITY COLLEGE CARDIFF CONSULTANTS LTD, priority 2017, dated 2021).
